Assay results reported in DBAASP.
Converted amounts (≈) assume the structure as drawn.

Tests used:
Test in all cases: ≥ marks a high value that may be exact or a test limit, other limits are often not marked, values filed in µg/mL are converted to µM
[1] = test system: Pseudomonas aeruginosa Ps4
[2] = test system: Staphylococcus aureus ATCC 25923
[3] = test system: Escherichia coli ATCC 25726
[4] = test system: Escherichia coli ATCC 25922
[5] = test system: Bacillus subtilis ATCC 23857
[6] = test system: Salmonella enterica subsp. enterica serovar Pullorum C79-13
[7] = test system: Enterococcus faecalis ATCC 29212
[8] = test system: Staphylococcus aureus ATCC 43300
[9] = test system: Salmonella enterica subsp. enterica serovar Typhimurium C77-31
[10] = test system: Staphylococcus epidermidis ATCC 12228
Escherichia coli UB1005 = test system: Escherichia coli UB1005
[11] = test system: Staphylococcus aureus ATCC 29213
[12] = test system: Pseudomonas aeruginosa ATCC 27853
[13] = test system: Bacillus subtilis CMCC 63501
[14] = test system: Klebsiella pneumoniae ATCC 700603
[15] = test system: Acinetobacter baumannii ATCC 19606
[16] = test system: Escherichia coli ATCC 8739
[17] = test system: Bacillus subtilis ATCC 6633
[18] = test system: Staphylococcus aureus ATCC 6538

Question: How did the MIC [1] turn out when `CC[C@H](C)[C@H](NC(=O)[C@H](CCCN=C(N)N)NC(=O)[C@@H](NC(=O)[C@H](CC(N)=O)NC(=O)[C@H](CCCN=C(N)N)NC(=O)[C@H](CCC(N)=O)NC(=O)[C@H](Cc1c[nH]c2ccccc12)NC(=O)[C@H](Cc1ccccc1)NC(=O)[C@@H](N)Cc1ccccc1)[C@@H](C)CC)C(=O)N[C@@H](CCCN=C(N)N)C(=O)N[C@@H](CCCN=C(N)N)C(N)=O` [FFWQRNIRIRR] was run?
Answer: ≥ 157 µM

Question: With `CC[C@H](C)[C@H](NC(=O)[C@H](CCCCN)NC(=O)[C@H](C)NC(=O)[C@H](C)NC(=O)[C@H](CC(C)C)NC(=O)CNC(=O)[C@H](C)NC(=O)[C@H](CC(C)C)NC(=O)[C@@H](NC(=O)[C@@H]1CCCN1C(=O)[C@H](CC(C)C)NC(=O)[C@@H](N)Cc1ccccc1)[C@@H](C)CC)C(=O)N[C@H](C(=O)N1CCC[C@H]1C(=O)N[C@@H](CCCCN)C(=O)N[C@@H](CC(C)C)C(=O)N[C@@H](Cc1ccccc1)C(=O)N[C@H]1CSSC[C@@H](C(=O)O)NC(=O)[C@H](CCCCN)NC(=O)[C@H](CCCCN)NC(=O)[C@H]([C@@H](C)O)NC(=O)[C@H](C)NC(=O)[C@H](CC(C)C)NC1=O)C(C)C` [FLPILAGLAAKIVPKLFCLATKKC] as the compound, how does the MIC [2] read?
Answer: 2 µM (≈ 5.11 µg/mL)

Question: What about the MIC [3] of the same compound?
Answer: ≥ 32 µM

Question: `CC[C@H](C)[C@H](NC(=O)[C@H](CCCN=C(N)N)NC(=O)[C@H](CCC(N)=O)NC(=O)[C@H](Cc1c[nH]c2ccccc12)NC(=O)[C@@H](N)Cc1ccccc1)C(=O)N[C@@H](CCCN=C(N)N)C(=O)N[C@@H](CCCCN)C(=O)N[C@H](C(=O)N[C@@H](CCCN=C(N)N)C(N)=O)C(C)C` [FWQRIRKVR] was tested. Which MIC [1] did it give?
Answer: ≥ 194 µM

Question: With `CC[C@H](C)[C@H](NC(=O)[C@H](CC(N)=O)NC(=O)[C@H](CCCN=C(N)N)NC(=O)[C@H](CCC(N)=O)NC(=O)[C@H](Cc1c[nH]c2ccccc12)NC(=O)[C@@H](N)Cc1ccccc1)C(=O)N[C@@H](CCCN=C(N)N)C(=O)N[C@@H](CCCCN)C(=O)N[C@@H](Cc1ccc(O)cc1)C(=O)N[C@@H](CCCN=C(N)N)C(N)=O` [FWQRNIRKYR] as the compound, how does the MIC [1] read?
Answer: ≥ 170 µM

Question: With `CC[C@H](C)[C@H](NC(=O)CNC(=O)[C@H](C)NC(=O)[C@@H](NC(=O)[C@H](C)NC(=O)CN)[C@@H](C)CC)C(=O)N[C@H](C(=O)N[C@H](C(=O)N[C@@H](CCCCN)C(=O)N[C@H](C(=O)N[C@@H](CCCCN)C(=O)N[C@@H](CCCCN)C(N)=O)[C@@H](C)CC)[C@@H](C)CC)[C@@H](C)CC` [GAIAGIIIKIKK] as the compound, how does the MIC [4] read?
Answer: 64 µM (≈ 78.3 µg/mL)

Question: And the MIC [5]?
Answer: ≥ 32 µM

Question: For `CC[C@H](C)[C@H](NC(=O)[C@H](CCCN=C(N)N)NC(=O)CNC(=O)[C@@H](NC(=O)[C@@H](NC(=O)[C@H](CCCN=C(N)N)NC(=O)[C@H](CCCCN)NC(=O)[C@H](Cc1ccccc1)NC(=O)[C@H](CCC(=O)O)NC(=O)[C@H](CCCCN)NC(=O)CN)[C@@H](C)CC)C(C)C)C(=O)N[C@@H](Cc1ccc(O)cc1)C(=O)N[C@@H](CCCN=C(N)N)C(=O)N[C@@H](CC(C)C)C(=O)N[C@@H](CS)C(=O)N[C@@H](CS)C(=O)N[C@@H](CCCN=C(N)N)C(N)=O` [GKEFKRIVGRIYRLCCR], which MIC [6] is on record?
Answer: 8 µM (≈ 16.8 µg/mL)

Question: What about the MIC [7] of the same compound?
Answer: 16 µM (≈ 33.5 µg/mL)

Question: What about the MIC [8] of the same compound?
Answer: 8 µM (≈ 16.8 µg/mL)

Question: And the MIC [9]?
Answer: 8 µM (≈ 16.8 µg/mL)

Question: And the MIC [10]?
Answer: 16 µM (≈ 33.5 µg/mL)

Question: What about the MIC (Escherichia coli UB1005) of the same compound?
Answer: 4 µM (≈ 8.39 µg/mL)

Question: What about the MIC [11] of the same compound?
Answer: 16 µM (≈ 33.5 µg/mL)

Question: What about the MIC [4] of the same compound?
Answer: 4 µM (≈ 8.39 µg/mL)

Question: And the MIC [12]?
Answer: 16 µM (≈ 33.5 µg/mL)

Question: What about the MIC [13] of the same compound?
Answer: 8 µM (≈ 16.8 µg/mL)

Question: Which results are given for `CC[C@H](C)[C@H](NC(=O)[C@H](CCCCN)NC(=O)[C@H](CO)NC(=O)[C@H](C)NC(=O)[C@H](Cc1c[nH]c2ccccc12)NC(=O)CN)C(=O)NCC(=O)N[C@@H](CCC(N)=O)C(=O)N[C@H](C(=O)N[C@@H](CC(C)C)C(=O)NCC(=O)N[C@@H](CCCCN)C(=O)N[C@@H](CCSC)C(=O)N[C@@H](C)C(=O)N[C@@H](CCCCN)C(=O)N[C@H](C(=O)NCC(=O)N[C@@H](CC(C)C)C(=O)N[C@@H](CCC(N)=O)C(=O)N[C@@H](CCC(=O)O)C(=O)N[C@H](C(=O)N[C@H](C(=O)N[C@@H](CCC(N)=O)C(=O)N1CCC[C@H]1C(=O)N[C@@H](CCCCN)C(=O)O)[C@@H](C)CC)[C@@H](C)CC)C(C)C)[C@@H](C)O` [GWASKIGQTLGKMAKVGLQEIIQPK]?
Answer: MIC [2]: > 50 µM; MIC [3]: ≥ 50 µM

Question: For `CC[C@H](C)[C@H](N)C(=O)N[C@@H](CCCN=C(N)N)C(=O)N[C@H](C(=O)N[C@@H](CCCN=C(N)N)C(=O)N[C@@H](CS)C(=O)N[C@@H](CCCN=C(N)N)C(=O)N[C@@H](CCCN=C(N)N)C(=O)N[C@@H](CCCN=C(N)N)C(=O)N[C@@H](Cc1ccccc1)C(=O)N[C@@H](CS)C(=O)N[C@@H](CCCN=C(N)N)C(=O)N[C@H](C(=O)N[C@@H](CCCN=C(N)N)C(=O)N[C@H](C(N)=O)[C@@H](C)CC)[C@@H](C)CC)[C@@H](C)CC` [IRIRCRRRFCRIRI], which MIC [6] is on record?
Answer: 1 µM (≈ 1.92 µg/mL)

Question: What about the MIC [9] of the same compound?
Answer: 4 µM (≈ 7.67 µg/mL)

Question: And the MIC [10]?
Answer: 4 µM (≈ 7.67 µg/mL)

Question: What about the MIC [2] of the same compound?
Answer: 8 µM (≈ 15.3 µg/mL)

Question: What about the MIC [11] of the same compound?
Answer: 4 µM (≈ 7.67 µg/mL)

Question: And the MIC [14]?
Answer: 8 µM (≈ 15.3 µg/mL)

Question: What about the MIC [5] of the same compound?
Answer: 4 µM (≈ 7.67 µg/mL)

Question: And the MIC [12]?
Answer: 4 µM (≈ 7.67 µg/mL)

Question: What about the MIC [13] of the same compound?
Answer: 2 µM (≈ 3.83 µg/mL)

Question: How did the MIC [6] turn out when `NC(=O)[C@@H]1CCCN1C(=O)[C@H](CCCN=C(N)N)NC(=O)[C@@H]1CCCN1C(=O)[C@H](CCCN=C(N)N)NC(=O)[C@H](CS)NC(=O)[C@H](Cc1ccccc1)NC(=O)[C@H](CCCN=C(N)N)NC(=O)[C@H](CCCN=C(N)N)NC(=O)[C@H](CCCN=C(N)N)NC(=O)[C@H](CS)NC(=O)[C@H](CCCN=C(N)N)NC(=O)[C@@H]1CCCN1C(=O)[C@H](CCCN=C(N)N)NC(=O)[C@@H]1CCCN1` [PRPRCRRRFCRPRP] was run?
Answer: ≥ 128 µM

Question: And the MIC [7]?
Answer: > 128 µM

Question: And the MIC [9]?
Answer: ≥ 128 µM

Question: And the MIC [10]?
Answer: > 128 µM

Question: What about the MIC [11] of the same compound?
Answer: > 128 µM

Question: And the MIC [4]?
Answer: 16 µM (≈ 29.6 µg/mL)

Question: And the MIC [12]?
Answer: > 128 µM

Question: And the MIC [13]?
Answer: 8 µM (≈ 14.8 µg/mL)

Question: Which MIC [7] does the source give for `NC(=O)[C@H](Cc1c[nH]c2ccccc12)NC(=O)[C@H](Cc1c[nH]c2ccccc12)NC(=O)[C@H](CCCN=C(N)N)NC(=O)[C@H](CCCN=C(N)N)NC(=O)[C@H](Cc1c[nH]c2ccccc12)NC(=O)[C@H](CCCN=C(N)N)NC(=O)[C@H](CCCN=C(N)N)NC(=O)[C@H](Cc1c[nH]c2ccccc12)NC(=O)[C@H](Cc1c[nH]c2ccccc12)NC(=O)[C@@H](N)CCCN=C(N)N` [RWWRRWRRWW] here?
Answer: 32 µM (≈ 55.3 µg/mL)

Question: What about the MIC [10] of the same compound?
Answer: 32 µM (≈ 55.3 µg/mL)

Question: What about the MIC [2] of the same compound?
Answer: 8 µM (≈ 13.8 µg/mL)

Question: And the MIC [4]?
Answer: 32 µM (≈ 55.3 µg/mL)

Question: What about the MIC [14] of the same compound?
Answer: 32 µM (≈ 55.3 µg/mL)

Question: What about the MIC [5] of the same compound?
Answer: 4 µM (≈ 6.92 µg/mL)

Question: What about the MIC [12] of the same compound?
Answer: 8 µM (≈ 13.8 µg/mL)

Question: What about the MIC [15] of the same compound?
Answer: 32 µM (≈ 55.3 µg/mL)

Question: Which MIC [8] does the source give for `CC[C@H](C)[C@@H]1NC(=O)[C@H](CCCCN)NC(=O)[C@@H](NC(=O)[C@H](CO)NC(=O)[C@H](CC(C)C)NC(=O)[C@H](C)NC(=O)[C@H](CC(N)=O)NC(=O)[C@H](CC(C)C)NC(=O)[C@@H](NC(=O)[C@H](CO)NC(=O)[C@@H](NC(=O)CNC(=O)[C@H](C)NC(=O)[C@H](CO)NC(=O)[C@H](CCCCN)NC(=O)[C@H](C)NC(=O)[C@H](C)NC(=O)[C@H](CC(N)=O)NC(=O)[C@@H](NC(=O)[C@H](C)NC(=O)[C@H](CC(C)C)NC(=O)[C@H](CC(N)=O)NC(=O)[C@H](CCCCN)NC(=O)[C@H](Cc2ccccc2)NC(=O)[C@@H](NC(=O)[C@H](CC(=O)O)NC(=O)[C@H](CC(C)C)NC(=O)[C@H](CC(C)C)NC(=O)[C@@H](N)CO)[C@@H](C)O)C(C)C)C(C)C)C(C)C)CSSC[C@@H](C(=O)O)NC(=O)[C@H]([C@@H](C)O)NC(=O)[C@H](CCCN=C(N)N)NC(=O)[C@H](CO)NC1=O` [SLLDTFKNLAVNAAKSAGVSVLNALSCKISRTC] here?
Answer: 100 µM (≈ 339 µg/mL)

Question: And the MIC [16]?
Answer: ≥ 50 µM

Question: And the MIC [17]?
Answer: 12.5 µM (≈ 42.4 µg/mL)

Question: And the MIC [18]?
Answer: 12.5 µM (≈ 42.4 µg/mL)

Question: `CC[C@H](C)[C@H](NC(=O)[C@H](CC(C)C)NC(=O)[C@H](CC(C)C)NC(=O)[C@H](CC(=O)O)NC(=O)[C@H](CCCCN)NC(=O)[C@@H](NC(=O)[C@@H](NC(=O)CNC(=O)[C@H](CC(C)C)NC(=O)[C@@H](NC(=O)[C@@H](N)CO)C(C)C)[C@@H](C)O)C(C)C)C(=O)NCC(=O)N[C@@H](C)C(=O)NCC(=O)N[C@@H](CCCCN)C(=O)N[C@@H](CO)C(=O)N[C@@H](C)C(=O)N[C@@H](C)C(=O)N[C@@H](CCC(N)=O)C(=O)N[C@@H](CO)C(=O)N[C@H](C(=O)N[C@@H](CC(C)C)C(=O)N[C@H](C(=O)N[C@H](C(=O)N[C@@H](CC(C)C)C(=O)N[C@@H](CO)C(=O)N[C@H]1CSSC[C@@H](C(=O)O)NC(=O)[C@H](CO)NC(=O)[C@H](CC(N)=O)NC(=O)[C@H](CO)NC(=O)[C@H](CC(C)C)NC(=O)[C@H](CCCCN)NC1=O)[C@@H](C)O)[C@@H](C)O)C(C)C` [SVLGTVKDLLIGAGKSAAQSVLTTLSCKLSNSC] was tested. Which MIC [16] did it give?
Answer: ≥ 50 µM

Question: What about the MIC [18] of the same compound?
Answer: 25 µM (≈ 81.6 µg/mL)
